Measured values taken from the NIST ThermoML archive (doi:10.1021/acs.jced.9b00752).

Experiment: mn = molality of the nth substance listed, in mol/kg
Details: 100 kPa, Liquid, Vibrating tube method

O=C(O)[C@@H]1CCCN1 [L-proline] + O
mass density [kg/m3]
Details | 273.65 K | 274.15 K | 274.65 K | 275.15 K | 275.65 K | 276.15 K | 276.65 K | 277.15 K | 277.65 K | 278.15 K
m1 = 0.0132 | 1000.34 | 1000.37 | 1000.39 | 1000.4 | 1000.41 | 1000.42 | 1000.43 | 1000.43 | 1000.43 | 1000.42
m1 = 0.0326 | 1001.02 | 1001.05 | 1001.07 | 1001.08 | 1001.09 | 1001.1 | 1001.11 | 1001.11 | 1001.1 | 1001.09
m1 = 0.0542 | 1001.77 | 1001.79 | 1001.81 | 1001.82 | 1001.84 | 1001.84 | 1001.84 | 1001.85 | 1001.84 | 1001.83
m1 = 0.0692 | 1002.29 | 1002.31 | 1002.32 | 1002.34 | 1002.34 | 1002.35 | 1002.35 | 1002.35 | 1002.34 | 1002.33
m1 = 0.0808 | 1002.69 | 1002.71 | 1002.73 | 1002.74 | 1002.75 | 1002.75 | 1002.75 | 1002.75 | 1002.74 | 1002.73
m1 = 0.1014 | 1003.41 | 1003.43 | 1003.45 | 1003.46 | 1003.46 | 1003.46 | 1003.46 | 1003.46 | 1003.45 | 1003.43
m1 = 0.1196 | 1004.09 | 1004.11 | 1004.12 | 1004.13 | 1004.13 | 1004.13 | 1004.13 | 1004.13 | 1004.12 | 1004.1
m1 = 0.1326 | 1004.5 | 1004.52 | 1004.53 | 1004.54 | 1004.54 | 1004.54 | 1004.54 | 1004.54 | 1004.52 | 1004.51
m1 = 0.1555 | 1005.27 | 1005.29 | 1005.3 | 1005.3 | 1005.3 | 1005.3 | 1005.3 | 1005.29 | 1005.28 | 1005.26
m1 = 0.1568 | 1005.41 | 1005.42 | 1005.43 | 1005.44 | 1005.44 | 1005.44 | 1005.43 | 1005.43 | 1005.41 | 1005.39
m1 = 0.1835 | 1006.23 | 1006.25 | 1006.25 | 1006.26 | 1006.26 | 1006.25 | 1006.25 | 1006.24 | 1006.22 | 1006.2
m1 = 0.2076 | 1007.04 | 1007.05 | 1007.05 | 1007.05 | 1007.05 | 1007.04 | 1007.04 | 1007.03 | 1007.01 | 1006.99
m1 = 0.2212 | 1007.72 | 1007.73 | 1007.73 | 1007.73 | 1007.72 | 1007.72 | 1007.71 | 1007.7 | 1007.68 | 1007.66
